In patent US20100234308A1, “WAKE-UP REMEDY” (Kyowa Hakko Kogyo Co., Ltd., priority 2006, published 2010):
Peptide text beside a SMILES is read from it.

Columns and labels:
healthy person = experiment: Wake-up remedial effect of alanylglutamine on daily consumption (Test Examples 1 and 2); assay type: in vivo, human; conditions: continuously for 1 month
Source text: Test examples in which the wake-up remedial effect of alanylglutamine was examined are indicated below.

[1] = cited from earlier work
[2] = cited from earlier work; remark: listed apart in the source

SMILES	awaking (healthy person; 0.5 g daily before going to bed)	awaking (healthy person; 1.5 g daily)	heat stability ([1]; compared to glutamine)	solubility in aqueous solutions ([1]; compared to glutamine)	degradation in the body [2]	solubility [1]
C[C@H](N)C(=O)N[C@@H](CCC(N)=O)C(=O)O [alanylglutamine] (H-Ala-Gln-OH)	improvement in awaking	improvement in awaking	superior	superior	immediately degraded into alanine and glutamine	
NC(=O)CC[C@H](N)C(=O)O [glutamine, reference compound]						low-solubility
